Assay results from US12723063B2, “GIPR-agonist compounds” (Eli Lilly and Company, priority 2019, dated 2026).
*1 amine or outer side, *2 acyl side, *3 side chain or, on linkers, in order; H or OH if unused. Where a SMILES comes first, the peptide text is derived from it. Side-chain parts run from the residue outwards. [ ]: non-standard residue; d: D form. The star is where a group is joined. C20 diacid = O=C(O)CCCCCCCCCCCCCCCCCCC(=O)*; αMePhe(2-F) = C[C@](N)(Cc1ccccc1F)C(=O)O; γGlu = O=C(O)[C@H](CCC(=O)[*:2])N[*:1]; 4Pal = N[C@@H](Cc1ccncc1)C(=O)O; αMeL = CC(C)C[C@](C)(N)C(=O)O; Orn = NCCC[C@H](N)C(=O)O; AEEA = NCCOCCOCC(=O)O; Aib = CC(C)(N)C(=O)O

What was measured:
[1] = target: T1, human glucagon receptor (GcgR) (Homo sapiens, UniProt P47871); assay: cAMP functional assay (HTRF) in HEK293 cells in presence of 0.1% casein; type: cell-based; details: HEK293 cells expressing human GcgR, geometric mean, read-out: hGcgR cAMP Rel EC50 nM (SEM, n)
T1 construct: expressed in transfected cells; host or cells: HEK293

[2] = target: T2, human glucose-dependent insulinotropic peptide receptor (GIPR) (Homo sapiens, UniProt P48546); assay: as above; type: cell-based; details: HEK293 cells expressing human GIPR, geometric mean, read-out: hGIPR cAMP Rel EC50 nM (SEM, n)
T2 construct: expressed in transfected cells; host or cells: HEK293
T2 sequence (P48546 22-466): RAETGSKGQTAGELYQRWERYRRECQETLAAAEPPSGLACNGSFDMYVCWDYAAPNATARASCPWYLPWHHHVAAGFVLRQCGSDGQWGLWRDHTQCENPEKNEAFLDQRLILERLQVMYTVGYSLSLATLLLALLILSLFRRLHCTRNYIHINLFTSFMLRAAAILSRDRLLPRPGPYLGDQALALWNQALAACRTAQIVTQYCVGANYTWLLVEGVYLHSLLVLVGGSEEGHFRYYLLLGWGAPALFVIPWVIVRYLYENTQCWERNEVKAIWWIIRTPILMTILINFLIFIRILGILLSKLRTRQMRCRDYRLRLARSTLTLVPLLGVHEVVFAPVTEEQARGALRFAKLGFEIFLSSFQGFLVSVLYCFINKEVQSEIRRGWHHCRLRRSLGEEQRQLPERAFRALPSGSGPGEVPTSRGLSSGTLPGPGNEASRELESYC

T1 sequence (P47871 26-477): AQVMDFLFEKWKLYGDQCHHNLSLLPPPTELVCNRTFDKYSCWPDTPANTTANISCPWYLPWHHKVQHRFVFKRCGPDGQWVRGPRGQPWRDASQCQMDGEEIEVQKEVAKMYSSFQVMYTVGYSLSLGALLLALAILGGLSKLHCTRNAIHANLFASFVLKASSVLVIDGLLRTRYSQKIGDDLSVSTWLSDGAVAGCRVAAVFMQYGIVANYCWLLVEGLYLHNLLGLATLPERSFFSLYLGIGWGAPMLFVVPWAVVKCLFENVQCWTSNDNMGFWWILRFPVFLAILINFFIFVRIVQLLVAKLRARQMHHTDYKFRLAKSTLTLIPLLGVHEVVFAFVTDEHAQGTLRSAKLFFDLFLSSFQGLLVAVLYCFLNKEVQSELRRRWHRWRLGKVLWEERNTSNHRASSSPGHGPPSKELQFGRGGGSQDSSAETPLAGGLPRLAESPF

SMILES	EC50 [1]	EC50 [2]
CC[C@H](C)[C@H](NC(=O)[C@H](CO)NC(=O)[C@H](Cc1ccc(O)cc1)NC(=O)[C@H](CC(=O)O)NC(=O)[C@H](CO)NC(=O)[C@@H](NC(=O)[C@](C)(Cc1ccccc1F)NC(=O)[C@@H](NC(=O)CNC(=O)[C@H](CCC(=O)O)NC(=O)C(C)(C)NC(=O)[C@@H](N)Cc1ccc(O)cc1)[C@@H](C)O)[C@@H](C)CC)C(=O)N[C@@H](C)C(=O)N[C@@H](CC(C)C)C(=O)N[C@@H](CC(=O)O)C(=O)N[C@@H](CCCCN)C(=O)N[C@H](C(=O)N[C@@H](Cc1c[nH]cn1)C(=O)N[C@@H](CCC(N)=O)C(=O)NC(C)(C)C(=O)N[C@@H](CC(=O)O)C(=O)N[C@@H](Cc1ccccc1)C(=O)N[C@H](C(=O)N[C@@H](CCC(=O)O)C(=O)N[C@@H](Cc1ccncc1)C(=O)N[C@@H](CCCCNC(=O)COCCOCCNC(=O)COCCOCCNC(=O)CC[C@H](NC(=O)CCCCCCCCCCCCCCCCCCC(=O)O)C(=O)O)C(=O)N[C@@H](CC(C)C)C(=O)N[C@@H](CCC(=O)O)C(=O)NCC(=O)NCC(=O)N1CCC[C@H]1C(=O)N[C@@H](CO)C(=O)N[C@@H](CO)C(=O)NCC(=O)N[C@@H](C)C(=O)N1CCC[C@H]1C(=O)N1CCC[C@H]1C(=O)N1CCC[C@H]1C(=O)N[C@@H](CO)C(N)=O)C(C)C)[C@@H](C)CC [Example 112] (H-Y[Aib]EGT[αMePhe(2-F)]ISDYSIALDKIHQ[Aib]DFVE[4Pal]K([AEEA-AEEA-γGlu-C20 diacid])LEGGPSSGAPPPS-NH2)	> 5000 nM	0.0041 nM
CC[C@H](C)[C@H](NC(=O)[C@H](CO)NC(=O)[C@H](Cc1ccc(O)cc1)NC(=O)[C@H](CC(=O)O)NC(=O)[C@H](CO)NC(=O)[C@@H](NC(=O)[C@](C)(Cc1ccccc1F)NC(=O)[C@@H](NC(=O)CNC(=O)[C@H](CCC(=O)O)NC(=O)C(C)(C)NC(=O)[C@@H](N)Cc1ccc(O)cc1)[C@@H](C)O)[C@@H](C)CC)C(=O)N[C@@H](C)C(=O)N[C@@H](CC(C)C)C(=O)N[C@@H](CC(=O)O)C(=O)N[C@@H](CCCCN)C(=O)N[C@H](C(=O)N[C@@H](Cc1c[nH]cn1)C(=O)N[C@@H](CCC(N)=O)C(=O)NC(C)(C)C(=O)N[C@@H](CC(=O)O)C(=O)N[C@@H](Cc1ccccc1)C(=O)N[C@H](C(=O)N[C@@H](CCC(=O)O)C(=O)N[C@@H](Cc1ccncc1)C(=O)N[C@@H](CCCCNC(=O)COCCOCCNC(=O)COCCOCCNC(=O)CC[C@H](NC(=O)CCCCCCCCCCCCCCCCCCC(=O)O)C(=O)O)C(=O)N[C@@H](CC(C)C)C(=O)N[C@@H](CCC(=O)O)C(=O)N[C@@H](C)C(=O)NCC(=O)N1CCC[C@H]1C(=O)N[C@@H](CO)C(=O)N[C@@H](CO)C(=O)NCC(=O)N[C@@H](C)C(=O)N1CCC[C@H]1C(=O)N1CCC[C@H]1C(=O)N1CCC[C@H]1C(=O)N[C@@H](CO)C(N)=O)C(C)C)[C@@H](C)CC [Example 113] (H-Y[Aib]EGT[αMePhe(2-F)]ISDYSIALDKIHQ[Aib]DFVE[4Pal]K([AEEA-AEEA-γGlu-C20 diacid])LEAGPSSGAPPPS-NH2)	> 5000 nM	0.0142 nM
CC[C@H](C)[C@H](NC(=O)[C@H](CO)NC(=O)[C@H](Cc1ccc(O)cc1)NC(=O)[C@H](CC(=O)O)NC(=O)[C@H](CO)NC(=O)[C@@H](NC(=O)[C@](C)(Cc1ccccc1F)NC(=O)[C@@H](NC(=O)CNC(=O)[C@H](CCC(=O)O)NC(=O)C(C)(C)NC(=O)[C@@H](N)Cc1ccc(O)cc1)[C@@H](C)O)[C@@H](C)CC)C(=O)N[C@@H](C)C(=O)N[C@@H](CC(C)C)C(=O)N[C@@H](CC(=O)O)C(=O)N[C@@H](CCCCN)C(=O)N[C@H](C(=O)N[C@@H](Cc1c[nH]cn1)C(=O)N[C@@H](CCC(N)=O)C(=O)NC(C)(C)C(=O)N[C@@H](CC(=O)O)C(=O)N[C@@H](Cc1ccccc1)C(=O)N[C@H](C(=O)N[C@@H](CCC(=O)O)C(=O)N[C@@H](Cc1ccncc1)C(=O)N[C@@H](CCCCNC(=O)COCCOCCNC(=O)COCCOCCNC(=O)CC[C@H](NC(=O)CCCCCCCCCCCCCCCCCCC(=O)O)C(=O)O)C(=O)N[C@@H](CC(C)C)C(=O)N[C@@H](CCC(=O)O)C(=O)N[C@@H](CCC(N)=O)C(=O)NCC(=O)N1CCC[C@H]1C(=O)N[C@@H](CO)C(=O)N[C@@H](CO)C(=O)NCC(=O)N[C@@H](C)C(=O)N1CCC[C@H]1C(=O)N1CCC[C@H]1C(=O)N1CCC[C@H]1C(=O)N[C@@H](CO)C(N)=O)C(C)C)[C@@H](C)CC [Example 114] (H-Y[Aib]EGT[αMePhe(2-F)]ISDYSIALDKIHQ[Aib]DFVE[4Pal]K([AEEA-AEEA-γGlu-C20 diacid])LEQGPSSGAPPPS-NH2)	> 5000 nM	0.0075 nM
CC[C@H](C)[C@H](NC(=O)[C@H](CCCCN)NC(=O)[C@H](CC(=O)O)NC(=O)[C@H](CC(C)C)NC(=O)[C@](C)(CC(C)C)NC(=O)[C@@H](NC(=O)[C@H](CO)NC(=O)[C@H](Cc1ccc(O)cc1)NC(=O)[C@H](CC(=O)O)NC(=O)[C@H](CO)NC(=O)[C@@H](NC(=O)[C@H](Cc1ccccc1)NC(=O)[C@@H](NC(=O)CNC(=O)[C@H](CCC(=O)O)NC(=O)C(C)(C)NC(=O)[C@@H](N)Cc1ccc(O)cc1)[C@@H](C)O)[C@@H](C)CC)[C@@H](C)CC)C(=O)N[C@@H](CCCNC(=N)N)C(=O)N[C@@H](CCC(N)=O)C(=O)NC(C)(C)C(=O)N[C@@H](CC(=O)O)C(=O)N[C@@H](Cc1ccccc1)C(=O)N[C@H](C(=O)N[C@@H](CCC(=O)O)C(=O)N[C@@H](Cc1ccc(O)cc1)C(=O)N[C@@H](CCCCNC(=O)COCCOCCNC(=O)COCCOCCNC(=O)CC[C@H](NC(=O)CCCCCCCCCCCCCCCCCCC(=O)O)C(=O)O)C(=O)N[C@@H](CC(C)C)C(=O)N[C@@H](CCC(=O)O)C(=O)NCC(=O)NCC(=O)N1CCC[C@H]1C(=O)N[C@@H](CO)C(=O)N[C@@H](CO)C(=O)NCC(=O)N[C@@H](C)C(=O)N1CCC[C@H]1C(=O)N1CCC[C@H]1C(=O)N1CCC[C@H]1C(=O)N[C@@H](CO)C(N)=O)C(C)C [Example 115] (H-Y[Aib]EGTFISDYSI[αMeL]LDKIRQ[Aib]DFVEYK([AEEA-AEEA-γGlu-C20 diacid])LEGGPSSGAPPPS-NH2)	> 5000 nM	0.0372 nM
CC[C@H](C)[C@H](NC(=O)[C@H](CCCN)NC(=O)[C@H](CC(=O)O)NC(=O)[C@H](CC(C)C)NC(=O)[C@](C)(CC(C)C)NC(=O)[C@@H](NC(=O)[C@H](CO)NC(=O)[C@H](Cc1ccc(O)cc1)NC(=O)[C@H](CC(=O)O)NC(=O)[C@H](CO)NC(=O)[C@@H](NC(=O)[C@H](Cc1ccccc1)NC(=O)[C@@H](NC(=O)CNC(=O)[C@H](CCC(=O)O)NC(=O)C(C)(C)NC(=O)[C@@H](N)Cc1ccc(O)cc1)[C@@H](C)O)[C@@H](C)CC)[C@@H](C)CC)C(=O)N[C@@H](CCCNC(=N)N)C(=O)N[C@@H](CCC(N)=O)C(=O)NC(C)(C)C(=O)N[C@@H](CC(=O)O)C(=O)N[C@@H](Cc1ccccc1)C(=O)N[C@H](C(=O)N[C@@H](CCC(=O)O)C(=O)N[C@@H](Cc1ccc(O)cc1)C(=O)N[C@@H](CCCCNC(=O)COCCOCCNC(=O)COCCOCCNC(=O)CC[C@H](NC(=O)CCCCCCCCCCCCCCCCCCC(=O)O)C(=O)O)C(=O)N[C@@H](CC(C)C)C(=O)N[C@@H](CCC(=O)O)C(=O)NCC(=O)NCC(=O)N1CCC[C@H]1C(=O)N[C@@H](CO)C(=O)N[C@@H](CO)C(=O)NCC(=O)N[C@@H](C)C(=O)N1CCC[C@H]1C(=O)N1CCC[C@H]1C(=O)N1CCC[C@H]1C(=O)N[C@@H](CO)C(N)=O)C(C)C [Example 116] (H-Y[Aib]EGTFISDYSI[αMeL]LD[Orn]IRQ[Aib]DFVEYK([AEEA-AEEA-γGlu-C20 diacid])LEGGPSSGAPPPS-NH2)	> 5000 nM	0.028 nM
CC[C@H](C)[C@H](NC(=O)[C@H](CCCCN)NC(=O)[C@H](CC(=O)O)NC(=O)[C@H](CC(C)C)NC(=O)[C@](C)(CC(C)C)NC(=O)[C@@H](NC(=O)[C@H](CO)NC(=O)[C@H](Cc1ccc(O)cc1)NC(=O)[C@H](CC(=O)O)NC(=O)[C@H](CO)NC(=O)[C@@H](NC(=O)[C@H](Cc1ccccc1)NC(=O)[C@@H](NC(=O)CNC(=O)[C@H](CCC(=O)O)NC(=O)C(C)(C)NC(=O)[C@@H](N)Cc1ccc(O)cc1)[C@@H](C)O)[C@@H](C)CC)[C@@H](C)CC)C(=O)N[C@@H](Cc1c[nH]cn1)C(=O)N[C@@H](CCC(N)=O)C(=O)NC(C)(C)C(=O)N[C@@H](CC(=O)O)C(=O)N[C@@H](Cc1ccccc1)C(=O)N[C@H](C(=O)N[C@@H](CCC(=O)O)C(=O)N[C@@H](Cc1ccc(O)cc1)C(=O)N[C@@H](CCCCNC(=O)COCCOCCNC(=O)COCCOCCNC(=O)CC[C@H](NC(=O)CCCCCCCCCCCCCCCCCCC(=O)O)C(=O)O)C(=O)N[C@@H](CC(C)C)C(=O)N[C@@H](CCC(=O)O)C(=O)N[C@@H](C)C(=O)NCC(=O)N1CCC[C@H]1C(=O)N[C@@H](CO)C(=O)N[C@@H](CO)C(=O)NCC(=O)N[C@@H](C)C(=O)N1CCC[C@H]1C(=O)N1CCC[C@H]1C(=O)N1CCC[C@H]1C(=O)N[C@@H](CO)C(N)=O)C(C)C [Example 117] (H-Y[Aib]EGTFISDYSI[αMeL]LDKIHQ[Aib]DFVEYK([AEEA-AEEA-γGlu-C20 diacid])LEAGPSSGAPPPS-NH2)	> 5000 nM	0.0617 nM
